Laboratory results reported in ChEMBL document CHEMBL3817749, “1,3-Oxazin-6-one Derivatives and Bohemamine-Type Pyrrolizidine Alkaloids from a Marine-Derived Streptomyces spinoverrucosus” (J Nat Prod, 2016).
Activity calls are given as the source filed them.

How the values were obtained:
HCC366 = experiment: Cytotoxicity against human HCC366 cells assessed as reduction in cell viability incubated for 96 hrs by Cell-titer Glo reagent based assay; type: functional
A549 = experiment: Cytotoxicity against human A549 cells assessed as reduction in cell viability incubated for 96 hrs by Cell-titer Glo reagent based assay; type: functional
HCC44 = experiment: Cytotoxicity against human HCC44 cells assessed as reduction in cell viability incubated for 96 hrs by Cell-titer Glo reagent based assay; type: functional
Homo sapiens = organism: Homo sapiens; experiment: Cytotoxicity against human HCC1171 cells assessed as reduction in cell viability incubated for 96 hrs by Cell-titer Glo reagent based assay; type: functional
Pseudomonas aeruginosa = experiment: Antibacterial activity against Pseudomonas aeruginosa assessed as zones of growth inhibition incubated for 24 hrs by […]; type: functional, organism-based
Bacillus subtilis = experiment: Antibacterial activity against Bacillus subtilis assessed as zones of growth inhibition incubated for 24 hrs by […]; type: functional, organism-based

C/C=C(\C)C(=O)NC1=CC(=O)[C@]2(C)CC[C@H](C)N12
inactive: Activity (HCC366) | Activity (A549) | Activity (HCC44) | Activity (Homo sapiens) | growth inhibition (GI) (Pseudomonas aeruginosa) | growth inhibition (GI) (Bacillus subtilis)

CC(C)=CC(=O)NC1=CC(=O)[C@@]2(O)CC[C@H](C)N12
inactive: Activity (HCC366) | Activity (A549) | Activity (HCC44) | Activity (Homo sapiens) | growth inhibition (GI) (Pseudomonas aeruginosa) | growth inhibition (GI) (Bacillus subtilis)

CC(C)=CC(=O)NC1=CC(=O)[C@]2(C)[C@H](O)[C@@H](O)[C@H](C)N12
inactive: Activity (HCC366) | Activity (A549) | Activity (HCC44) | Activity (Homo sapiens) | growth inhibition (GI) (Pseudomonas aeruginosa) | growth inhibition (GI) (Bacillus subtilis)

CC(C)/C=C/C(=O)NC1=CC(=O)[C@]2(C)CC[C@H](C)N12
inactive: Activity (HCC366) | Activity (A549) | Activity (HCC44) | Activity (Homo sapiens) | growth inhibition (GI) (Pseudomonas aeruginosa) | growth inhibition (GI) (Bacillus subtilis)

CC(C)=Cc1nc(N2C(=O)C[C@H](O)[C@@H]2C)cc(=O)o1
inactive: Activity (HCC366) | Activity (A549) | Activity (HCC44) | Activity (Homo sapiens) | growth inhibition (GI) (Pseudomonas aeruginosa) | growth inhibition (GI) (Bacillus subtilis)

CC(C)=Cc1nc(N2C(=O)CC[C@@H]2C)cc(=O)o1
inactive: Activity (HCC366) | Activity (A549) | Activity (HCC44) | Activity (Homo sapiens) | growth inhibition (GI) (Pseudomonas aeruginosa) | growth inhibition (GI) (Bacillus subtilis)

C[C@H]1CC[C@@]2(C)C(=O)C=C(NC(=O)c3ccccc3)N12
inactive: Activity (HCC366) | Activity (A549) | Activity (HCC44) | Activity (Homo sapiens) | growth inhibition (GI) (Pseudomonas aeruginosa) | growth inhibition (GI) (Bacillus subtilis)

CC(C)=CC(=O)NC1=CC(=O)[C@]2(C)C=C[C@H](C)N12
inactive: Activity (HCC366) | Activity (A549) | Activity (HCC44) | Activity (Homo sapiens) | growth inhibition (GI) (Pseudomonas aeruginosa) | growth inhibition (GI) (Bacillus subtilis)
